Assay results published in a melting point compilation (Tetko et al.).

Work on `Cc1cc(C(=O)O)c(C)n1C1CC1` yielded a melting point of 178 to 185 °C.
In the case of `O=Cc1cc([N+](=O)[O-])cc([N+](=O)[O-])c1O`, the melting point is reported as 72.5 °C.
Work on `BrCc1cccc(-c2cccs2)c1` yielded a melting point of 57 °C.
For `BrCCCCCCCBr`, the melting point was 41.7 °C.
`C/C(=N/Nc1ccccc1)C1=Cc2ccccc2C1` showed a melting point of 225 °C.
Work on `CC(C)=CCCC(C)=CC=CC(C)=CC=CC(C)=CC=CC=C(C)C=CC=C(C)C=CC1=C(C)CCCC1(C)C` yielded a melting point of 178 °C.
`O=[N+]([O-])c1ccc2cccnc2c1` gave a melting point of 132 °C.
With `OC1CCN(c2nccc(C(F)(F)F)n2)CC1` the melting point was 99 to 100 °C.
In the case of `CCOC=C(C#N)S(=O)(=O)Cc1ccco1`, the melting point is reported as 98 to 100 °C.
`O/N=C(/CC(NO)c1ccccc1)c1ccccc1` (stereo not given) showed a melting point of 141 °C.
Compound `CCCC(=O)OCN1C(=O)NC(c2ccccc2)(c2ccccc2)C1=O` has a melting point of 131 °C.
For `COC(=O)C1(S(=O)(=O)c2ccc(C)cc2)CCCCC1`, the melting point was 146 °C.
With `CC(=O)c1cccc(N=C=S)c1` the melting point was 26 to 28 °C.
Work on `C=C(F)C(=O)O` yielded a melting point of 51.5 to 52 °C.
With `COc1ccc(C2(C(=O)O)CCCC2)cc1` the melting point was 151 to 156 °C.
`COc1ccc2c(c1)CC1(CCC(c3ccc(C(C)(C)C)cc3)CC1)C2` (stereo not given) showed a melting point of 84 to 85 °C.
Work on `Cc1nc2cc(C)c(C)cc2o1` yielded a melting point of 93.5 to 94 °C.
Work on `CC(C)(C)C(=O)OCOC(=O)C1N2C(=O)C(N=CN3CCCCCC3)C2SC1(C)C` (stereo not given) yielded a melting point of 119 °C.
`NC(=O)c1cc(C(F)(F)F)cc(C(F)(F)F)c1` gave a melting point of 162 °C.
For `CC(=O)C1CCC2C3CCC4CC(=O)CCC4(C)C3CCC12C` (stereo not given), the melting point was 200 °C.
`COc1ccc(C=NC2=NC(C(F)(F)F)N=N2)cc1` (stereo not given) gave a melting point of 172 °C.
For `CC(=O)Nc1cc(CCNC(=O)c2ccccc2)cc(NC(C)=O)c1CCNC(=O)c1ccccc1`, the melting point was 268 °C.
Work on `BrC(=NNc1ccccc1)c1ccccc1` yielded a melting point of 190 °C.
`CCOC(=O)C(C#N)=Cc1ccc(Cl)cc1` showed a melting point of 137 to 138 °C.
With `CCOC(=O)Oc1c(-c2ccccc2)[nH]c2cc([N+](=O)[O-])ccc12` the melting point was 170 °C.
`O=c1nc2ccccc2nc(C(F)(F)F)c1NNc1ccc2ccccc2c1` gave a melting point of 151 °C.
In the case of `C/C(=N\Cc1cccnc1)c1c(O)c2ccccc2n(-c2ccccc2)c1=O`, the melting point is reported as 221 to 222 °C.
`O=C(O)c1ccc(-c2cccs2)cc1` gave a melting point of 240 to 244 °C.
`Cc1cn(C2CC(F)C(CO)O2)c(=O)[nH]c1=O` (stereo not given) showed a melting point of 177 °C.
Compound `N#C/C(=N/Nc1ccc(Br)cc1)c1nc(-c2ccccc2)cs1` has a melting point of 169 °C.
Compound `CCCCCCCCCCCCCCCC(=O)OCCC` has a melting point of 20.4 °C.
In the case of `Nc1c(F)c(F)c(Br)c(F)c1F`, the melting point is reported as 59 to 61 °C.
In the case of `FC(F)(F)c1ccnc(N2CCCNCC2)n1`, the melting point is reported as 50 to 51 °C.
`NC(CC1CCCCC1)C(=O)O` (stereo not given) showed a melting point of 322 to 328 °C.
`Oc1ccc2cc[nH]c2c1` gave a melting point of 124 to 130 °C.
For `Brc1ccc(Oc2ccccc2)c(Br)c1`, the melting point was < 20 °C.
For `FC(F)=C(F)Cl`, the melting point was -109 °C.
Work on `CNc1c(C=O)c(=O)n(C)c(=O)n1C` yielded a melting point of 203 °C.
`Cc1c(F)ccc(C(=O)O)c1Cl` gave a melting point of 188 °C.
With `Cc1nc2ccccn2c1Br` the melting point was 73 to 74 °C.
`OCc1cccc(-c2ccsc2)c1` showed a melting point of 88 to 90 °C.
`CCOC(=O)C1=C(c2ccccc2)NC(=O)NC1c1ccccc1` (stereo not given) gave a melting point of 172 °C.
Compound `CCN(C(=S)Cl)c1ccccc1` has a melting point of 56 to 58 °C.
`Cn1c(=O)oc2ccccc21` gave a melting point of 82 to 86 °C.
In the case of `NC(=S)NCCCN1CCOCC1`, the melting point is reported as 129 to 131 °C.
In the case of `CN1C2CCC1CC(OC(=O)C(O)c1ccccc1)C2` (stereo not given), the melting point is reported as 99.5 °C.
In the case of `Cc1cccc(P(c2cccc(C)c2)c2cccc(C)c2)c1`, the melting point is reported as 100 to 103 °C.
With `O=Cc1cc(Cl)cc(Cl)c1O` the melting point was 96 °C.
`OC1CC2CCC1C2` (stereo not given) gave a melting point of 149 °C.
For `N#Cc1cccc(Cl)n1`, the melting point was 87 °C.
Work on `CCCCCCCCCCNCCCCCCCCCC` yielded a melting point of 40 °C.
Compound `COc1ccc2cc(Br)ccc2c1CC#N` has a melting point of 147 to 148 °C.
For `COc1ccc(-c2nn3c(COc4ccccc4)nnc3s2)cc1OC`, the melting point was 106 °C.
With `Nc1cc([N+](=O)[O-])ccc1F` the melting point was 101 °C.
In the case of `COC1=CC(=O)NC1`, the melting point is reported as 132 °C.
In the case of `COC(=O)CCc1ccc2c(c1)CCC(=O)N2`, the melting point is reported as 134 °C.
Work on `O=C(OCCO)c1ccccc1O` yielded a melting point of 37 °C.
In the case of `Nc1c(F)cc(Br)cc1Br`, the melting point is reported as 63 °C.
In the case of `COc1c(C(C)(C)C(C)C)c2nc3ccccc3nc2c2ccccc12`, the melting point is reported as 88.6 °C.
Work on `O=C(O)c1cc(Br)cc(Br)c1` yielded a melting point of 224 to 226 °C.
Compound `c1ccc(-c2ccncn2)cc1` has a melting point of 56 °C.
Compound `Clc1noc2ccccc12` has a melting point of 31 °C.
`COc1cccc(C=CC(=O)O)c1` showed a melting point of 116 to 119 °C.
`CCC(C)(O)CNC1C2CCC(C)(C1O)C2(C)C` (stereo not given) gave a melting point of 119 °C.
Compound `Cc1nc2cc(Cl)ccc2s1` has a melting point of 69 °C.
In the case of `CSc1nn2c(=O)c(C)nnc2s1`, the melting point is reported as 196 °C.
For `O=[N+]([O-])c1cc(F)ccc1Cl`, the melting point was 38 °C.
`OCc1ccc(Oc2ccccc2)cc1` gave a melting point of 55 to 56 °C.
Compound `Clc1ccc(Cl)c(-c2nnn[nH]2)c1` has a melting point of 157 °C.
In the case of `Cc1cc(O)cc(C)c1Br`, the melting point is reported as 115 °C.
In the case of `CN1CCN(C2=Nc3ccccc3Oc3ccc(Cl)cc32)CC1`, the melting point is reported as 110 °C.
`O=C1/C(=N/Nc2ccncc2)C(C(F)(F)F)=NN1c1ccccc1` gave a melting point of 177 °C.
`CC(CCC(=O)O)C1CCC2=C3CCC4CC(O)CCC4(C)C3CC(O)C21C` (stereo not given) showed a melting point of 172 °C.
`NS(=O)(=O)c1ccc(Br)s1` showed a melting point of 139 to 141 °C.
For `CCN(Cc1ccncc1)C(=O)C(CO)c1ccccc1` (stereo not given), the melting point was 96 °C.
With `Nc1cc(N)nc(N)n1` the melting point was 250 °C.
Compound `CCOC(=O)/C(C#N)=C/c1ccc(O)cc1` has a melting point of 171 to 172 °C.
In the case of `CC(=O)Oc1ccc(C2(c3ccc(OC(C)=O)cc3)Oc3ccccc3NC2=O)cc1`, the melting point is reported as 190 °C.
With `COc1cc(C)c(C=O)cc1C` the melting point was 31 to 35 °C.
Compound `CNC1=C(c2cccc(C(F)(F)F)c2)C(=O)C(c2ccccc2)O1` (stereo not given) has a melting point of 148 °C.
`CC(C)CCC[C@@H](C)[C@H]1CC[C@H]2[C@@H]3CC[C@H]4CC(=O)CC[C@]4(C)[C@H]3CC[C@]12C` gave a melting point of 128 to 133 °C.
Work on `COc1cc(OC)nc(NC(=O)NS(=O)(=O)c2ncccc2C(F)(F)F)n1` yielded a melting point of 180 °C.
In the case of `CC(C)(C)c1cc(C(C)(C)C)cc(C(C)(C)C)c1`, the melting point is reported as 71 °C.
Work on `O=C(O)C=Cc1ccccc1C(=O)O` yielded a melting point of 197 to 202 °C.
Work on `CCCCCCCC(=O)OC1CCC2(C)C(=CCC3C2CCC2(C)C(C(C)CCCC(C)C)CCC32)C1` (stereo not given) yielded a melting point of 110 °C.
Compound `Nc1ccc2c(c1)CCC2=O` has a melting point of 184 to 186 °C.
Compound `Nc1nc2ccccc2n1Cc1ccc(Cl)cc1` has a melting point of 197 to 199 °C.
`CC(=O)N1N=C(c2ccc3ccccc3c2)CC1c1ccccc1Cl` (stereo not given) showed a melting point of 173 °C.
`O=C(O)c1ccc(Cl)nc1Cl` showed a melting point of 148 °C.
With `O=c1cc(Cl)nc[nH]1` the melting point was 194 to 195 °C.
Compound `O=C=Nc1ccc2c(c1)OCCOCCOCCOCCO2` has a melting point of 35 to 39 °C.
Compound `CCCCCCCCCCCCCCCCCCCCCC(=O)OCC` has a melting point of 50 °C.
In the case of `O=NN1CCc2ccccc21`, the melting point is reported as 83 °C.
Work on `Cn1nc(-c2ccccc2)cc1C(=O)Cl` yielded a melting point of 88 to 89 °C.
`CCCCCC#CCO` showed a melting point of -18 °C.
Work on `O=C(Oc1ccccn1)Oc1ccccn1` yielded a melting point of 90 °C.
`ON=Cc1ccc(Br)cc1` gave a melting point of 118 °C.
With `O=C(O)C1c2ccccc2-c2ccccc21` the melting point was 229 °C.
Compound `Cc1cc(C)n(C(=O)CC#N)n1` has a melting point of 120 °C.
Compound `CS(=O)(=O)c1scc(-c2ccccc2)c1C#N` has a melting point of 164 to 166 °C.
With `O=C(O)c1csc(-c2ccc(C(F)(F)F)cc2)n1` the melting point was 186 to 188 °C.
`CC12CCC(C(Br)(CBr)C1=O)C2(C)C` (stereo not given) gave a melting point of 109 °C.
With `Nc1ccccc1NC(C(=O)Nc1ccccc1)(c1ccccc1)c1ccccc1` the melting point was 160 °C.
With `OCCNc1ccccc1` the melting point was 11 °C.
`O=[N+]([O-])c1c(Cl)ccc2nsnc12` showed a melting point of 149 to 152 °C.
Work on `O=C1CCC(NC(=O)OCc2ccccc2)CC1` yielded a melting point of 82 °C.
Compound `C=CCOC(Cn1ccnc1)c1ccc(Cl)cc1Cl` (stereo not given) has a melting point of 52.7 °C.
`CCCCc1ccc(N=Cc2ccc(C=Nc3ccc(CCCC)cc3)cc2)cc1` gave a melting point of 232 °C.
Work on `CCNC(=O)C=C(C)C=CC=C(C)C=Cc1c(C)cc(OC)c(C)c1C` yielded a melting point of 180 °C.
With `N[C@H](CO)[C@H](O)c1ccccc1` the melting point was 110 to 114 °C.
`N=C1NC(=O)C(=NNc2ccc(Br)cc2)S1` showed a melting point of 284 °C.
`N#CC1=C(N)N2C(=C(C#N)C1c1ccccc1)Sc1ccccc12` (stereo not given) showed a melting point of 205 °C.
With `COCCOc1cnc(NS(=O)(=O)c2ccccc2)nc1` the melting point was 152 °C.
`COc1ccc2c(c1)=NC1=C(C)NCCC=21` showed a melting point of 230 °C.
For `CSC(=CC(=C(C#N)C#N)c1ccc(Cl)cc1)SC`, the melting point was 106 to 110 °C.
Work on `CC(=O)c1c(O)c(C(C)(C)C)cc(C(C)(C)C)c1O` yielded a melting point of 180 °C.
With `CC(C)=CCCC(C)C1CCC2(C)C3=C(CCC12C)C1(C)CCC(O)C(C)(C)C1CC3` (stereo not given) the melting point was 140 °C.
For `Cn1c(C=O)cc2sccc21`, the melting point was 63 to 64 °C.
Work on `CC(C)(C)OC(=O)N1CCN(c2ccc(C(=O)O)cn2)CC1` yielded a melting point of 298 to 300 °C.
Compound `Cc1c(Nc2ncccc2C(=O)O)cccc1C(F)(F)F` has a melting point of 226 °C.
Compound `CCOc1ccc(-c2nnc3n2NC(c2ccccc2OC)S3)cc1` (stereo not given) has a melting point of 194 °C.
In the case of `C#CCC1(OC(N)=O)CCCCC1`, the melting point is reported as 99 °C.
Compound `O=C(O)c1ccc2[nH]ccc2c1` has a melting point of 210 °C.
In the case of `COc1cc2c(cc1OC)C(c1ccccc1)N(C(C)=O)CC2` (stereo not given), the melting point is reported as 195 to 197 °C.
Work on `O=S(=O)(Cl)c1cc(Cl)c(Cl)s1` yielded a melting point of 56 °C.
`Cc1noc(-c2ccccc2C(=O)O)n1` gave a melting point of 152 to 153 °C.
`CC(C)S(=O)(=O)O` showed a melting point of -37 °C.
Compound `O=C(CBr)c1ccc(Cl)c([N+](=O)[O-])c1` has a melting point of 83 to 85 °C.
Compound `CC(=O)Nc1cc(C)ccc1O` has a melting point of 151 to 153 °C.
For `Cc1cc(C=O)nn1C`, the melting point was 56 to 57 °C.
